Molecular target: human P2X3 receptor (Homo sapiens (Human), UniProt P56373)
Test: Evaluation of human P2X3 receptor inhibitory activity (Fluo-3 calcium fluorescence, FDSS 3000, ATP stimulation);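 note: stimulus was 50 nM ATP with fluorescence followed for 3 min, and the response per well was peak post-ATP fluorescence divided by the reading at measurement start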
Type: cell-based
Conditions: human P2X3 receptor, Test Example 1

human P2X3 receptor, sequence (P56373 whole entry): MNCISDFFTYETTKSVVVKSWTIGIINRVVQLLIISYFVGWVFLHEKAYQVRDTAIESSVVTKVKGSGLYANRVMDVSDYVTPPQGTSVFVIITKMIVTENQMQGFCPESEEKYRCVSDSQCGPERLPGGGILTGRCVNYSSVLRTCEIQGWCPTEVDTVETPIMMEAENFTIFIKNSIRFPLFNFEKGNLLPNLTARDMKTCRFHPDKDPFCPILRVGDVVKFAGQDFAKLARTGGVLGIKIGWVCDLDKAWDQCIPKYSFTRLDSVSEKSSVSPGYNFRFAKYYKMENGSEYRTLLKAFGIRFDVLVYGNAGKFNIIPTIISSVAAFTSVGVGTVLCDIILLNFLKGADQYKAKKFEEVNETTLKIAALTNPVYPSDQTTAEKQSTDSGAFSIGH

| Structure (SMILES) | IC50 |
| --- | --- |
| O=C(O)c1cc(Oc2ccc(/N=c3\[nH]c(=O)n(CC(F)F)c(=O)n3Cc3ccc(Cl)cc3)cc2)ccn1 [Compound I-2248] | 7 nM |
| CCn1c(=O)[nH]/c(=N\c2ccc(Oc3cc(C(=O)O)sn3)cc2)n(Cc2ccc(Cl)cc2)c1=O [Compound I-2249] | 6 nM |
| CCn1c(=O)[nH]/c(=N\c2ccc(Oc3cc(C(=O)O)ccn3)cc2)n(Cc2ccc(Cl)cc2)c1=O [Compound I-2250] | 8 nM |
| CCn1c(=O)[nH]/c(=N\c2ccc(Oc3ccnc(C(=O)NC)c3)c(OC)c2)n(Cc2ccc(Cl)cc2)c1=O [Compound I-2251] | 5 nM |
| COc1ccc(CNc2nc(=O)n(Cc3ccc(Cl)cc3)/c(=N/c3ccc(OC(C)C)cc3)[nH]2)c(OC)c1 [Compound I-2252] | 769 nM |
| CC(C)Oc1ccc(/N=c2\[nH]c(=S)n(C(C)C)c(=O)n2Cc2ccc(Cl)cc2)cc1 [Compound I-2254, 1-(4-chlorobenzyl)-3-isopropyl-6-(4-isopropoxyphenylimino)-4-thioxo-1,3,5-triazinane-2-one] | 78 nM |
| CC(C)Oc1ccc(-n2c(NCc3ccc(Cl)cc3)nc(=S)n(C(C)C)c2=O)cc1 [Compound I-2255] | 543 nM |
| CC(C)Oc1ccc(/N=c2\[nH]c(=S)n(C(C)C)c(=O)n2Cc2ccc(Cl)cc2)cc1Cl [Compound I-2257, 1-(4-chlorobenzyl)-3-isopropyl-6-(3-chloro-4-isopropoxyphenylimino)-4-thioxo-1,3,5-triazinane-2-one] | 151 nM |
| CCn1c(=S)[nH]/c(=N\c2ccc(Oc3ccnc(O)c3)cc2)n(Cc2ccc(Cl)cc2)c1=O [Compound I-2258] | 3 nM |
| CCn1c(=S)[nH]/c(=N\c2ccc(Oc3cncc(C(=O)OC)c3)cc2)n(Cc2ccc(Cl)cc2)c1=O [Compound I-2262, 1-(4-chlorobenzyl)-3-ethyl-6-[4-(5-methoxycarbonyl-3-pyridyloxy)phenylimino]-4-thioxo-1,3,5-triazinane-2-one] | 17 nM |
| CCn1c(=S)[nH]/c(=N\c2ccc(Oc3cncc(C(=O)O)c3)cc2)n(Cc2ccc(Cl)cc2)c1=O [Compound I-2263] | 4 nM |
| CCn1c(SC)n/c(=N\c2ccc(Oc3cncc(C(=O)OC)c3)cc2)n(Cc2ccc(Cl)cc2)c1=O [Compound I-2264, 1-(4-chlorobenzyl)-3-ethyl-4-methylthio-6-[4-(5-methoxycarbonyl-3-pyridyloxy)phenylimino]-1,3,5-triazine-2-(1H)-one] | 558 nM |
| CCn1c(=O)[nH]/c(=N\c2ccc(O[C@@H]3C[C@@H](C(=O)OC)N(C(=O)OC(C)(C)C)C3)cc2)n(Cc2ccc(Cl)cc2)c1=O [Compound I-2265] | 299 nM |
| COC(=O)c1cccc(Oc2ccc(/N=c3\[nH]c(=O)n(C)c(=O)n3Cc3ccc(C)cc3)cc2)n1 [Compound I-2266] | 44 nM |
| CCn1c(=O)[nH]/c(=N\c2ccc3nc(N(C)C)sc3c2)n(Cc2ccc(Cl)cc2)c1=O [Compound I-2267] | 331 nM |
| Cc1ccc(Cn2c(=O)n(C)c(=O)[nH]/c2=N\c2ccc(Oc3cccc(C(=O)O)n3)cc2)cc1 [Compound I-2268] | 6 nM |
| CCn1c(=O)[nH]/c(=N\c2ccc(Oc3ccc(C(=O)OC)nn3)cc2)n(Cc2ccc(Cl)cc2)c1=O [Compound I-2269] | 2 nM |
| CCn1c(=O)[nH]/c(=N\c2ccc(Oc3cncc(C(=O)OC)n3)cc2)n(Cc2ccc(Cl)cc2)c1=O [Compound I-2270] | < 4 nM |
| COC(=O)c1cccc(Oc2ccc(/N=c3\[nH]c(=O)n(C)c(=O)n3Cc3ccc(Cl)cc3)cc2)n1 [Compound I-2271] | 36 nM |
| CCn1c(=O)[nH]/c(=N\c2ccc(Oc3ccc(C(=O)O)nn3)cc2)n(Cc2ccc(Cl)cc2)c1=O [Compound I-2273] | 12 nM |
| Cn1c(=O)[nH]/c(=N\c2ccc(Oc3cccc(C(N)=O)n3)cc2)n(Cc2ccc(Cl)cc2)c1=O [Compound I-2274] | 5 nM |

| Structure (SMILES) | IC50 |
| --- | --- |
| CCn1c(=O)[nH]/c(=N\c2ccc(Oc3ccc(C(=O)OC)nc3)cc2)n(Cc2ccc(Cl)cn2)c1=O [Compound I-2275] | 10 nM |
| CC(C)Oc1ccc(/N=c2\ncn(C(C)C)c(=O)n2Cc2ccc(Cl)cc2)cc1 [Compound I-2276, (E)-3-(4-chlorobenzyl)-4-(4-isopropoxyphenylimino)-1-isopropyl-3,4-dihydro-1,3,5-triazine-2(1H)-one] | 778 nM |
| CCn1c(=O)[nH]/c(=N\c2ccc(O[C@H]3CN[C@H](C(=O)OC)C3)cc2)n(Cc2ccc(Cl)cc2)c1=O [Compound I-2277] | 107 nM |
| CCn1c(=O)[nH]/c(=N\c2ccc(Oc3ccc(C(=O)O)nc3)cc2)n(Cc2ccc(Cl)cn2)c1=O [Compound I-2278] | 136 nM |
| CCn1c(=O)[nH]/c(=N\c2ccc(Oc3ccc(C(N)=O)nc3)cc2)n(Cc2ccc(Cl)cn2)c1=O [Compound I-2279] | 33 nM |
| CCn1c(=O)[nH]/c(=N\c2ccc3nc(N4CCC4)sc3c2)n(Cc2ccc(Cl)cc2)c1=O [Compound I-2280] | 127 nM |
| CCn1c(=O)[nH]/c(=N\c2ccc(Oc3cnc(C#N)nc3)cc2)n(Cc2ccc(Cl)cc2)c1=O [Compound I-2281] | 2 nM |
| CCn1c(=O)[nH]/c(=N\c2ccc(Oc3cncc(C(=O)O)n3)cc2)n(Cc2ccc(Cl)cc2)c1=O [Compound I-2282] | < 4 nM |
| CCn1c(=O)[nH]/c(=N\c2ccc(Oc3cncc(C(N)=O)n3)cc2)n(Cc2ccc(Cl)cc2)c1=O [Compound I-2284] | < 4 nM |
| CCn1c(=O)[nH]/c(=N\c2ccc(Oc3cnc(C(=O)O)nc3)cc2)n(Cc2ccc(Cl)cc2)c1=O [Compound I-2285] | 15 nM |
| CCn1c(=O)[nH]/c(=N\c2ccc(Oc3ccsn3)cc2)n(Cc2ccc(Cl)cc2)c1=O [Compound I-2286] | 5 nM |
| CC1(C)OCC(Cn2c(=O)[nH]/c(=N\c3ccc(Oc4ccon4)cc3)n(Cc3ccc(Cl)cc3)c2=O)CO1 [Compound I-2287] | < 4 nM |
| O=c1[nH]/c(=N\c2ccc(Oc3ccon3)cc2)n(Cc2ccc(Cl)cc2)c(=O)n1CCOC1CCCCO1 (stereo not shown) [Compound I-2288] | 1 nM |
| CC1(C)OC[C@H](Cn2c(=O)[nH]/c(=N\c3ccc(Oc4ccon4)cc3)n(Cc3ccc(Cl)cc3)c2=O)O1 [Compound I-2289] | < 4 nM |
| O=c1[nH]/c(=N\c2ccc(Oc3nccs3)cc2)n(Cc2ccc(Cl)cc2)c(=O)n1C[C@H](O)CO [Compound I-2294] | 5 nM |
| CCn1c(=O)[nH]/c(=N\c2ccc(Oc3ccnc(C(=O)O)c3)c(OC)c2)n(Cc2ccc(Cl)cc2)c1=O [Compound I-2295] | < 4 nM |
| CCn1c(=O)[nH]/c(=N\c2ccc(Oc3cnc(C(=O)O)cn3)cc2)n(Cc2ccc(Cl)cc2)c1=O [Compound I-2296] | 5 nM |
| CCn1c(=O)[nH]/c(=N\[C@H]2CC[C@H](Oc3ccnc(C(=O)O)c3)CC2)n(Cc2ccc(Cl)cc2)c1=O [Compound I-2297] | 65 nM |
| CCn1c(=O)[nH]/c(=N\c2ccc(Oc3cc(C#N)ccn3)cc2)n(Cc2ccc(C)cc2)c1=O [Compound I-2300] | 3 nM |
| CSc1n/c(=N\c2ccc(OC(C)C)cc2)n(Cc2ccc(Cl)cc2)c(=O)n1C(C)C [Compound I-2301] | 437 nM |
| CCn1c(=O)[nH]/c(=N\c2ccc(Oc3cccc(C#N)n3)cc2)n(Cc2ccc(Cl)cc2)c1=O [Compound I-2302] | 2 nM |

| Structure (SMILES) | IC50 |
| --- | --- |
| CCn1c(=O)[nH]/c(=N\c2ccc(Oc3cc(C(=O)O)ccn3)cc2)n(Cc2ccc(C)cc2)c1=O [Compound I-2303] | 7 nM |
| CCn1c(=O)[nH]/c(=N\c2ccc(Oc3ccnc(NC(=O)OC(C)(C)C)c3)cc2)n(Cc2ccc(Cl)cc2)c1=O [Compound I-2304] | 29 nM |
| CCn1c(=O)[nH]/c(=N\c2ccc(Oc3cccc(C#N)c3)cc2)n(Cc2ccc(Cl)cc2)c1=O [Compound I-2305, 1-(4-chlorobenzyl)-6-[4-(3-cyanophenoxy)phenylimino]-3-ethyl-1,3,5-triazinane-2,4-dion] | 4 nM |
| CCn1c(=O)[nH]/c(=N\c2ccc(Oc3ccc(C#N)cn3)cc2)n(Cc2ccc(Cl)cc2)c1=O [Compound I-2306] | 2 nM |
| COC(=O)c1cncc(Oc2ccc(/N=c3\[nH]c(=O)n(C4CC4)c(=O)n3Cc3ccc(Cl)cc3)cc2)c1 [Compound I-2308] | 3 nM |
| CNC(=O)c1cc(Oc2ccc(/N=c3\[nH]c(=O)n(C4CC4)c(=O)n3Cc3ccc(Cl)cc3)cc2)ccn1 [Compound I-2309] | 2 nM |
| CCn1c(=O)[nH]/c(=N\c2ccc(Oc3ccnc(C#N)n3)cc2)n(Cc2ccc(Cl)cc2)c1=O [Compound I-2310] | 5 nM |
| CCn1c(=O)[nH]/c(=N\c2ccc(Oc3nccc(C(N)=O)n3)cc2)n(Cc2ccc(Cl)cc2)c1=O [Compound I-2311] | 8 nM |
| CCc1cc2cc(/N=c3\[nH]c(=O)n(CC4COC(C)(C)OC4)c(=O)n3Cc3ccc(Cl)cc3)ccc2o1 [Compound I-2312] | 5 nM |
| CCc1cc2cc(/N=c3\[nH]c(=O)n(CC(CO)CO)c(=O)n3Cc3ccc(Cl)cc3)ccc2o1 [Compound I-2313] | 8 nM |
| CCc1cc2cc(/N=c3\[nH]c(=O)n(C[C@H]4COC(C)(C)O4)c(=O)n3Cc3ccc(Cl)cc3)ccc2o1 [Compound I-2314] | 7 nM |
| CCc1cc2cc(/N=c3\[nH]c(=O)n(C[C@H](O)CO)c(=O)n3Cc3ccc(Cl)cc3)ccc2o1 [Compound I-2315] | 17 nM |
| CNCCCn1c(=O)[nH]/c(=N\c2ccc(OC(C)C)c(F)c2)n(Cc2ccc(Cl)cc2)c1=O [Compound I-2316] | 51 nM |
| CC(=O)N(C)CCCn1c(=O)[nH]/c(=N\c2ccc(OC(C)C)c(F)c2)n(Cc2ccc(Cl)cc2)c1=O [Compound I-2317] | 3 nM |
| CCn1c(=O)[nH]/c(=N\c2ccc(Oc3cncc(C#N)c3)cc2)n(Cc2ccc(Cl)cn2)c1=O [Compound I-2318] | 18 nM |
| CCn1c(=O)[nH]/c(=N\c2ccc(Oc3nccc(C(=O)O)n3)cc2)n(Cc2ccc(Cl)cc2)c1=O [Compound I-2319] | 17 nM |
| CCn1c(=O)[nH]/c(=N\c2ccc(Oc3ccc(C(=O)O)cn3)cc2)n(Cc2ccc(Cl)cc2)c1=O [Compound I-2320] | 6 nM |
| CCn1c(=O)[nH]/c(=N\c2ccc3nc(Cl)sc3c2)n(Cc2ccc(Cl)cc2)c1=O [Compound I-2321] | 11 nM |
| CCn1c(=O)[nH]/c(=N\c2ccc(Oc3ncc(C(=O)OC)cn3)cc2)n(Cc2ccc(Cl)cc2)c1=O [Compound I-2322] | 6 nM |

Source: patent US9718790B2, “Triazine derivative and pharmaceutical composition having an analgesic activity comprising the same” (SHIONOGI & CO., LTD., priority 2010, dated 2017)
